Test results from ChEMBL document CHEMBL4507262, “Data for DCP probe A-1596586” (2021).

Experiments:
[1] = biological target: Mitogen-activated protein kinase 6 (Homo sapiens) (UniProt Q16659); conditions: Compound concentration 1000.0 nM
[2] = biological target: Type-2 angiotensin II receptor (Homo sapiens) (UniProt P50052); assay: AT2 (h) Eurofins-Cerep binding assay; design: ligand concentration 0.01 nM; conditions: filed as agonist, Compound concentration 10.0 uM
[3] = biological target: Dual specificity protein kinase CLK3 (Homo sapiens) (UniProt P49761); conditions: Compound concentration 1000.0 nM
[4] = biological target: Atypical kinase COQ8A, mitochondrial (Homo sapiens) (UniProt Q8NI60); conditions: Compound concentration 1000.0 nM
[5] = biological target: SNF-related serine/threonine-protein kinase (Homo sapiens) (UniProt Q9NRH2); conditions: Compound concentration 1000.0 nM
[6] = biological target: Dual specificity tyrosine-phosphorylation-regulated kinase 1B (Homo sapiens) (UniProt Q9Y463); conditions: Compound concentration 1000.0 nM
[7] = biological target: Tyrosine-protein kinase Fgr (Homo sapiens) (UniProt P09769); conditions: Compound concentration 1000.0 nM
[8] = biological target: Ephrin type-A receptor 2 (Homo sapiens) (UniProt P29317); conditions: Compound concentration 1000.0 nM
[9] = biological target: Aurora kinase C (Homo sapiens) (UniProt Q9UQB9); conditions: Compound concentration 1000.0 nM
[10] = biological target: cGMP-dependent protein kinase 2 (Homo sapiens) (UniProt Q13237); conditions: Compound concentration 1000.0 nM
[11] = biological target: Serine/threonine-protein kinase Nek2 (Homo sapiens) (UniProt P51955); conditions: Compound concentration 1000.0 nM
[12] = biological target: Homeodomain-interacting protein kinase 4 (Homo sapiens) (UniProt Q8NE63); conditions: Compound concentration 1000.0 nM
[13] = biological target: Serine/threonine-protein kinase 36 (Homo sapiens) (UniProt Q9NRP7); conditions: Compound concentration 1000.0 nM
[14] = biological target: Mitogen-activated protein kinase kinase kinase 6 (Homo sapiens) (UniProt O95382); conditions: Compound concentration 1000.0 nM
[15] = biological target: Ribosomal protein S6 kinase alpha-6 (Homo sapiens) (UniProt Q9UK32); conditions: Compound concentration 1000.0 nM
[16] = test system: Tyrosine-protein kinase ABL1 (Homo sapiens), P00519 [F317L]; conditions: Compound concentration 1000.0 nM
[17] = biological target: Calcium/calmodulin-dependent protein kinase type IV (Homo sapiens) (UniProt Q16566); conditions: Compound concentration 1000.0 nM
[18] = biological target: Cytoplasmic tyrosine-protein kinase BMX (Homo sapiens) (UniProt P51813); conditions: Compound concentration 1000.0 nM
[19] = biological target: Activin receptor type-1-like (Homo sapiens) (UniProt P37023); conditions: Compound concentration 1000.0 nM
[20] = biological target: Serine/threonine-protein kinase ULK2 (Homo sapiens) (UniProt Q8IYT8); conditions: Compound concentration 1000.0 nM
[21] = biological target: MAP/microtubule affinity-regulating kinase 4 (Homo sapiens) (UniProt Q96L34); conditions: Compound concentration 1000.0 nM
[22] = biological target: Mitogen-activated protein kinase 9 (Homo sapiens) (UniProt P45984); conditions: Compound concentration 1000.0 nM
[23] = biological target: Ribosomal protein S6 kinase alpha-4 (Homo sapiens) (UniProt O75676); conditions: Compound concentration 1000.0 nM
[24] = biological target: Serine/threonine-protein kinase WNK2 (Homo sapiens) (UniProt Q9Y3S1); conditions: Compound concentration 1000.0 nM
[25] = biological target: Angiotensin-converting enzyme (Homo sapiens) (UniProt P12821); assay: ACE (h) Eurofins-Cerep enzyme and uptake assay; conditions: Compound concentration 10.0 uM
[26] = biological target: Mitogen-activated protein kinase kinase kinase 12 (Homo sapiens) (UniProt Q12852); conditions: Compound concentration 1000.0 nM
[27] = biological target: Bone morphogenetic protein receptor type-2 (Homo sapiens) (UniProt Q13873); conditions: Compound concentration 1000.0 nM
[28] = biological target: Alpha-1A adrenergic receptor (Homo sapiens) (UniProt P35348); assay: Alpha1A (h) Eurofins-Cerep binding assay; design: ligand concentration 0.1 nM; conditions: filed as antagonist, Compound concentration 10.0 uM
[29] = biological target: Phosphatidylinositol 4-phosphate 5-kinase type-1 gamma (Homo sapiens) (UniProt O60331); conditions: Compound concentration 1000.0 nM
[30] = biological target: Cyclin-dependent kinase 17 (Homo sapiens) (UniProt Q00537); conditions: Compound concentration 1000.0 nM
[31] = biological target: Dual specificity protein kinase TTK (Homo sapiens) (UniProt P33981); conditions: Compound concentration 1000.0 nM
[32] = biological target: D(4) dopamine receptor (Homo sapiens) (UniProt P21917); conditions: Compound concentration 10.0 uM
[33] = biological target: Platelet-derived growth factor receptor beta (Homo sapiens) (UniProt P09619); conditions: Compound concentration 1000.0 nM
[34] = biological target: Mitogen-activated protein kinase 4 (Homo sapiens) (UniProt P31152); conditions: Compound concentration 1000.0 nM
[35] = biological target: T1, Muscarinic acetylcholine receptor M5 (Homo sapiens) (UniProt P08912); assay: M5 (h) Eurofins-Cerep binding assay; design: ligand concentration 0.3 nM; conditions: filed as antagonist, Compound concentration 10.0 uM
T1 sequence (whole entry): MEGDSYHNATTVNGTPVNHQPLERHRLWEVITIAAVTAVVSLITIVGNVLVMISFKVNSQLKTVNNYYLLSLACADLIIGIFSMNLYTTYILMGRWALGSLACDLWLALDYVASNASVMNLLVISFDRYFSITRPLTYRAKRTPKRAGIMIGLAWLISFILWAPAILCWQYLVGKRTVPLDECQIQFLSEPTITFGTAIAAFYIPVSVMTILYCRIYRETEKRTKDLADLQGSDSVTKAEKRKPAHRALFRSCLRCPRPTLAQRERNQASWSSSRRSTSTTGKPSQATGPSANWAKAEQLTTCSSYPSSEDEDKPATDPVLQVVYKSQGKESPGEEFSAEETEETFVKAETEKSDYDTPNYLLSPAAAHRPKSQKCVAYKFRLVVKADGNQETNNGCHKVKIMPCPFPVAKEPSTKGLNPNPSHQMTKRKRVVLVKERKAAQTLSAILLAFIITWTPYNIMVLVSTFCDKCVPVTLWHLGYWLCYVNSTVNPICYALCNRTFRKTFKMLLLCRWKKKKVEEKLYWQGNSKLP

[36] = biological target: Serine/threonine-protein kinase PAK 3 (Homo sapiens) (UniProt O75914); conditions: Compound concentration 1000.0 nM
[37] = biological target: NUAK family SNF1-like kinase 1 (Homo sapiens) (UniProt O60285); conditions: Compound concentration 1000.0 nM
[38] = biological target: STE20/SPS1-related proline-alanine-rich protein kinase (Homo sapiens) (UniProt Q9UEW8); conditions: Compound concentration 1000.0 nM

Chain of NUAK family SNF1-like kinase 1 (Homo sapiens) (O60285 whole entry): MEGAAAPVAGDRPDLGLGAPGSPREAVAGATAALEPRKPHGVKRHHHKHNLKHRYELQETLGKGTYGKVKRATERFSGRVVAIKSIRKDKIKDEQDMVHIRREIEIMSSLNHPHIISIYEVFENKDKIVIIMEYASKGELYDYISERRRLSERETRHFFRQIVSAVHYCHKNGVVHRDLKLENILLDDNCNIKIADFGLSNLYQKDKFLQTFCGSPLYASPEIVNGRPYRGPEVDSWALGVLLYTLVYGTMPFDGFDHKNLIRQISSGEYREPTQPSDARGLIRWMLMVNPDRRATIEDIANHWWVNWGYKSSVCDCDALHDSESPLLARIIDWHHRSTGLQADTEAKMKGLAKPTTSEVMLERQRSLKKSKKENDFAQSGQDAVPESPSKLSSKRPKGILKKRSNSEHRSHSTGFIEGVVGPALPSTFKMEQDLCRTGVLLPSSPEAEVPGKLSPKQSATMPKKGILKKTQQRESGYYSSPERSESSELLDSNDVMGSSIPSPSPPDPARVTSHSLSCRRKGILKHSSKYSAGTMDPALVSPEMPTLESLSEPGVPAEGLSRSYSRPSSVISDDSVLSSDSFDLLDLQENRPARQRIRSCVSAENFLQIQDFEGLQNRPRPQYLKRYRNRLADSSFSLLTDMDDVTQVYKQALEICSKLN
Chain of cGMP-dependent protein kinase 2 (Homo sapiens) (Q13237 whole entry): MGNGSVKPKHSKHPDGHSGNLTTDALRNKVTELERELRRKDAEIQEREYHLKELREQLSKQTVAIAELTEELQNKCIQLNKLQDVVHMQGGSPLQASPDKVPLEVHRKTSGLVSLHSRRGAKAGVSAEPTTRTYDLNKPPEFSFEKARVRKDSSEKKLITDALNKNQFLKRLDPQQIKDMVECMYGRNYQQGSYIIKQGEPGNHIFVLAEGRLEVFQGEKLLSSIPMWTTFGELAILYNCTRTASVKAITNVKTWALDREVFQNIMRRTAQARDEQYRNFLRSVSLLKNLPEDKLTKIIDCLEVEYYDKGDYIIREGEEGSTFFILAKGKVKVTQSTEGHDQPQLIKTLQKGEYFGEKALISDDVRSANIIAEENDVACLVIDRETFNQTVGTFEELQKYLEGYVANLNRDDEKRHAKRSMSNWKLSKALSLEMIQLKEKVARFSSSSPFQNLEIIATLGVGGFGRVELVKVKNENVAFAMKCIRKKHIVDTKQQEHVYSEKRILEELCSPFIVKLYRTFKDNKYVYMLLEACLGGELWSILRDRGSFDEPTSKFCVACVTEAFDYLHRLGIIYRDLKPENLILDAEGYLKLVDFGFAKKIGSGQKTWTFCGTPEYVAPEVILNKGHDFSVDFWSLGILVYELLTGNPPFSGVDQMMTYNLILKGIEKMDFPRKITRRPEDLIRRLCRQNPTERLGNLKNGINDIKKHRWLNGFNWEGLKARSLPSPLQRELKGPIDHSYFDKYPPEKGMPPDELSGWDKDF
Chain of Type-2 angiotensin II receptor (Homo sapiens) (P50052 whole entry): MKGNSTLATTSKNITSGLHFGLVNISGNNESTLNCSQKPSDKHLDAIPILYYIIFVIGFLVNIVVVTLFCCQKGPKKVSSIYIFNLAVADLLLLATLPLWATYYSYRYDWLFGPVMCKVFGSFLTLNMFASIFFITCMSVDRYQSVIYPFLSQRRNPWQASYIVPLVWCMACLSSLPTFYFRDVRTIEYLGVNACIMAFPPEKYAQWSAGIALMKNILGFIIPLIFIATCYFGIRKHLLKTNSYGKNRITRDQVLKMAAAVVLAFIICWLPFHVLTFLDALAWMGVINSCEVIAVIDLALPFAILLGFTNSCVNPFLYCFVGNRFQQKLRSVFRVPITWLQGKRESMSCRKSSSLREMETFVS
Chain of Angiotensin-converting enzyme (Homo sapiens) (P12821 whole entry): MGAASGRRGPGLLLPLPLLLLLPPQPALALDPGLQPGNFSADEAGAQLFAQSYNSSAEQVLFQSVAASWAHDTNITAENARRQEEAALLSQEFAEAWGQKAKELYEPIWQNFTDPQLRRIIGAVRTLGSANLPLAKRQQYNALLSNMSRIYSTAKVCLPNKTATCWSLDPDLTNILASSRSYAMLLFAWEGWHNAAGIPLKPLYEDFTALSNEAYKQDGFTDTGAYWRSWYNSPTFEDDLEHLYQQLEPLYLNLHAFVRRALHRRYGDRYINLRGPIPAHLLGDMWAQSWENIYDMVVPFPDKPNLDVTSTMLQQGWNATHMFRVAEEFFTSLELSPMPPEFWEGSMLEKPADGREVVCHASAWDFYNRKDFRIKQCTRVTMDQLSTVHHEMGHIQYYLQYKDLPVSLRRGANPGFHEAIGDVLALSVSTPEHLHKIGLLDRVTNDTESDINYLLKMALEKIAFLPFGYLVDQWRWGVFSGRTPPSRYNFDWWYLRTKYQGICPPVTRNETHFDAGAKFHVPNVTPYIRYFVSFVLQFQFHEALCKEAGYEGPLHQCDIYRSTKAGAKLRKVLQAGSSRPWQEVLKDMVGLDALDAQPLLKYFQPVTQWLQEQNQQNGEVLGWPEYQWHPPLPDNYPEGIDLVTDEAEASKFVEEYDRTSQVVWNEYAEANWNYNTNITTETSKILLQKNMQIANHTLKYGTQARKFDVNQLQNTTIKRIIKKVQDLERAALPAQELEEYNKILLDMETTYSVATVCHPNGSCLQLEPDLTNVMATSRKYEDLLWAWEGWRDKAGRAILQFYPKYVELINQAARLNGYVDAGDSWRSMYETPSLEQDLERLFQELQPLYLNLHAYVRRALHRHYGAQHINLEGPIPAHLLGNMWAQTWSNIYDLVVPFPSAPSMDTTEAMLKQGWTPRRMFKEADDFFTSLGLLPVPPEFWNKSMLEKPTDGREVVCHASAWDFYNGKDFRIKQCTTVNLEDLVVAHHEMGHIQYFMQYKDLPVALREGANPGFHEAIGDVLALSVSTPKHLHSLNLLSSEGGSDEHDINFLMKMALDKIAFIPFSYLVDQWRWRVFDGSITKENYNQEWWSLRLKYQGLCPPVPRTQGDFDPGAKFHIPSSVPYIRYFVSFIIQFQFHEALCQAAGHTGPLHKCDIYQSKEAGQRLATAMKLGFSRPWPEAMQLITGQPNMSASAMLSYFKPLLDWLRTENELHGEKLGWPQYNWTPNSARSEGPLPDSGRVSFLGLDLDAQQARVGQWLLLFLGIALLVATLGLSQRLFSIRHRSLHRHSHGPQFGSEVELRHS
Chain of Serine/threonine-protein kinase PAK 3 (Homo sapiens) (O75914 whole entry, looked up): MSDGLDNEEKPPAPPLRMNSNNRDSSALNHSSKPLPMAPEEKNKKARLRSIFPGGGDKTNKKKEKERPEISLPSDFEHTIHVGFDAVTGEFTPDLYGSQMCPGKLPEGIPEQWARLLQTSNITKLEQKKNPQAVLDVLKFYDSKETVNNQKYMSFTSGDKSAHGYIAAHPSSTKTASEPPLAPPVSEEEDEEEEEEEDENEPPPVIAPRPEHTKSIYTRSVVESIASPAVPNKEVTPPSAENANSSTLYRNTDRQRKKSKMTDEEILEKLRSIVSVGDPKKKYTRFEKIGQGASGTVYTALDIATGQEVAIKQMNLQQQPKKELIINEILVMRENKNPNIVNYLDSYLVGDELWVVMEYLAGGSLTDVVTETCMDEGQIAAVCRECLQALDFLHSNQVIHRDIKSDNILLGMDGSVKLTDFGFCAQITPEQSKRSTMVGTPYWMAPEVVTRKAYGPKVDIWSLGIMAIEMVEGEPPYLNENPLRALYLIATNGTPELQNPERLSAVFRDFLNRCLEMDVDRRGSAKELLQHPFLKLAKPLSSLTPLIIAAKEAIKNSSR
Chain of Tyrosine-protein kinase Fgr (Homo sapiens) (P09769 2-529 limits assumed): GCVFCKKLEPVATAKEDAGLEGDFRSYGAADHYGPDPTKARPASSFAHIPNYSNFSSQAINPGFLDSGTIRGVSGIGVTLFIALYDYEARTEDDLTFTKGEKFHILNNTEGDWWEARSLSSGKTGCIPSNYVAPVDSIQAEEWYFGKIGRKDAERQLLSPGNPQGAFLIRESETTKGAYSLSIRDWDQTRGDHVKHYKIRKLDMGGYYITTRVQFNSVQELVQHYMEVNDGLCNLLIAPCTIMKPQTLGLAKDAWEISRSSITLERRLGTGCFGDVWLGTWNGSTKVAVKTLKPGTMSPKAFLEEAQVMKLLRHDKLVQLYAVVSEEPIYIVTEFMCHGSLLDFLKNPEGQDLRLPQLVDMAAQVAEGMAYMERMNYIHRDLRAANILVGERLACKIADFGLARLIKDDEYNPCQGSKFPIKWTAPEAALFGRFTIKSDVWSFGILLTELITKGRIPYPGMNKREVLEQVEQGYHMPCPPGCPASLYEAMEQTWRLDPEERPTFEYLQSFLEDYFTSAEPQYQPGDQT
Chain of SNF-related serine/threonine-protein kinase (Homo sapiens) (Q9NRH2 whole entry): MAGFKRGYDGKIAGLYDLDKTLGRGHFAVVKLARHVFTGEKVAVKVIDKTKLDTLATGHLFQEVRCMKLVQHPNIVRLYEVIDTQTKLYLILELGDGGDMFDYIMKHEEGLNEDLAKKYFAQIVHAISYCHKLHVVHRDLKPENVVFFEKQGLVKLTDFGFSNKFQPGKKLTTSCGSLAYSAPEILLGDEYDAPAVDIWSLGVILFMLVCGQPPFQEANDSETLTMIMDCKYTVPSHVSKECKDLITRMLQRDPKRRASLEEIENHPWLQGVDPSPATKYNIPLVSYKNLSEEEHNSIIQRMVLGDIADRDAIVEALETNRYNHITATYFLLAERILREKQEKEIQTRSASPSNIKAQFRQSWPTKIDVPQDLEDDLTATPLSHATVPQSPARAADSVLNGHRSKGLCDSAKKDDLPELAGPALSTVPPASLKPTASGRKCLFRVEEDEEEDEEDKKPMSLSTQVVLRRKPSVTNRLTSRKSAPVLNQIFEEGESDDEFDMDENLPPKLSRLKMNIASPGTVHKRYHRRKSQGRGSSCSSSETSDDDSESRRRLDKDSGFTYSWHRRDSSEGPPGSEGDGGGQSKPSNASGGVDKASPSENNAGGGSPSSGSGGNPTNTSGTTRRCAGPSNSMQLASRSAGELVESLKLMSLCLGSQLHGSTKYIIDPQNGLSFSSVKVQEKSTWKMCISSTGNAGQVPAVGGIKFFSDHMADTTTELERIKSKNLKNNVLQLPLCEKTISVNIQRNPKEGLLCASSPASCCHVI

Row | Structure (SMILES) | residual activity [1] [%] | % Inhibition of Control Specific Binding (Mean n=2) [2] [%] | residual activity [3] [%] | residual activity [4] [%] | residual activity [5] [%] | residual activity [6] [%] | residual activity [7] [%] | residual activity [8] [%] | residual activity [9] [%] | residual activity [10] [%] | residual activity [11] [%] | residual activity [12] [%] | residual activity [13] [%] | residual activity [14] [%] | residual activity [15] [%] | residual activity [16] [%] | residual activity [17] [%] | residual activity [18] [%] | residual activity [19] [%] | residual activity [20] [%] | also measured
1 | COc1ccc2c(c1)O[C@H](c1ccc(OC)c(OC)c1)C[C@@H]2NC(=O)C1(c2ccc3c(c2)OC(F)(F)O3)CC1 [A-1596584] | 100 | -3.4 | 100 | 100 | 92 | 91 | 87 | 94 | 100 | 89 | 100 | 91 | 94 | 81 | 87 | 100 | 100 | 100 | 90 | 100 | residual activity [21]: 88%; residual activity [22]: 92%; residual activity [23]: 100%; residual activity [24]: 85%; % Inhibition of Control Values (Mean n=2) [25]: -28.5%; residual activity [26]: 87%; residual activity [27]: 92%; % Inhibition of Control Specific Binding (Mean n=2) [28]: 27.3%; residual activity [29]: 100%; residual activity [30]: 100%; residual activity [31]: 100%; inhibition [32]: -6.5%; residual activity [33]: 100%; residual activity [34]: 100%; % Inhibition of Control Specific Binding (Mean n=2) [35]: -0.7%; residual activity [36]: 100%; residual activity [37]: 95%; residual activity [38]: 100%
2 | COc1ccc2c(c1)O[C@@H](c1ccc(OC)c(OC)c1)C[C@H]2NC(=O)C1(c2ccc3c(c2)OC(F)(F)O3)CC1 [A-1596586] | 100 | 4.9 | 100 | 87 | 90 | 100 | 94 | 95 | 100 | 96 | 97 | 51 | 100 | 81 | 84 | 76 | 89 | 91 | 97 | 77 | residual activity [21]: 92%; residual activity [22]: 83%; residual activity [23]: 81%; residual activity [24]: 84%; % Inhibition of Control Values (Mean n=2) [25]: -94%; residual activity [26]: 80%; residual activity [27]: 68%; % Inhibition of Control Specific Binding (Mean n=2) [28]: 5.7%; residual activity [29]: 92%; residual activity [30]: 100%; residual activity [31]: 100%; inhibition [32]: -7.47%; residual activity [33]: 100%; residual activity [34]: 99%; % Inhibition of Control Specific Binding (Mean n=2) [35]: 35.7%; residual activity [36]: 87%; residual activity [37]: 86%; residual activity [38]: 71%
